Source: PubChem BioAssay (NCI)
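Five concentrations, 48 hours, 96-well plates. TGI: total growth inhibition.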

Columns and labels:
Assay in all cases: NCI-60 cell line screen, 48 h
SF-268 CNS = system: SF-268 CNS
HCT-116 colon = system: HCT-116 colon
BT-549 breast = system: BT-549 breast
OVCAR-5 ovarian = system: OVCAR-5 ovarian
SF-295 CNS = system: SF-295 CNS
HOP-62 NSCLC = system: HOP-62 NSCLC
ACHN renal = system: ACHN renal
K-562 leukemia = system: K-562 leukemia
MCF7 breast = system: MCF7 breast
HCT-15 colon = system: HCT-15 colon
OVCAR-3 ovarian = system: OVCAR-3 ovarian
UO-31 renal = system: UO-31 renal
MDA-MB-435 = system: MDA-MB-435
A498 renal = system: A498 renal
SNB-19 CNS = system: SNB-19 CNS
CCRF-CEM leukemia = system: CCRF-CEM leukemia
MALME-3M melanoma = system: MALME-3M melanoma
MDA-MB-231 breast = system: MDA-MB-231 breast
M14 melanoma = system: M14 melanoma
COLO 205 colon = system: COLO 205 colon
A549 NSCLC = system: A549 NSCLC
SNB-75 CNS = system: SNB-75 CNS
786-0 renal = system: 786-0 renal
NCI/ADR-RES ovarian = system: NCI/ADR-RES ovarian
OVCAR-4 ovarian = system: OVCAR-4 ovarian
UACC-257 melanoma = system: UACC-257 melanoma
IGROV1 ovarian = system: IGROV1 ovarian
SK-MEL-2 melanoma = system: SK-MEL-2 melanoma
KM12 colon = system: KM12 colon
TK-10 renal = system: TK-10 renal
MOLT-4 leukemia = system: MOLT-4 leukemia
SW-620 colon = system: SW-620 colon
U251 CNS = system: U251 CNS
UACC-62 melanoma = system: UACC-62 melanoma
OVCAR-8 ovarian = system: OVCAR-8 ovarian
MDA-N = system: MDA-N
DU-145 prostate = system: DU-145 prostate
NCI-H522 lung = system: NCI-H522 lung
PC-3 prostate = system: PC-3 prostate
NCI-H460 lung = system: NCI-H460 lung
SK-MEL-5 melanoma = system: SK-MEL-5 melanoma
HOP-92 NSCLC = system: HOP-92 NSCLC
HS 578T breast = system: HS 578T breast
RPMI-8226 leukemia = system: RPMI-8226 leukemia
CAKI-1 renal = system: CAKI-1 renal
HCC-2998 colon = system: HCC-2998 colon
NCI-H23 lung = system: NCI-H23 lung
SK-MEL-28 melanoma = system: SK-MEL-28 melanoma
RXF 393 renal = system: RXF 393 renal
EKVX NSCLC = system: EKVX NSCLC
SK-OV-3 ovarian = system: SK-OV-3 ovarian
HT29 colon = system: HT29 colon

Measured: TGI

Cc1cc(-c2ccc[nH]2)on1
> 100 µM: all assays above
